Laboratory results reported in patent US8465945B2, “Method for production and use of mite group 1 proteins” (Merck Patent GmbH, priority 1999, dated 2013).

Target: T1, P. pastoris-expressed Der f 1 protein (Dermatophagoides farinae, UniProt P16311, D282V)
T1 construct: The Der f 1 protein secreted as a mature form by recombinant cell P. pastoris HCY215; S. cerevisiae alpha factor signal peptide (with KEX2 site and Glu-Ala spacer) (N, cleaved yes); made in house; host or cells: Pichia pastoris strain X33 transformed with pBC128 (recombinant cell HCY215)
T1 sequence (P16311 99-321 D282V): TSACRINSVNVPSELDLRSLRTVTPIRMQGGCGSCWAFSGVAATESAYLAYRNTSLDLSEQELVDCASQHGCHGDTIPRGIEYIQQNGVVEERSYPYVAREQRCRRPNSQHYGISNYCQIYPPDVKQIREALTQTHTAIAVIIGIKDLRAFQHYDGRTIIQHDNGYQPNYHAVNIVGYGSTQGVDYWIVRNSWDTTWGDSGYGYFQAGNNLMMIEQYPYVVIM
Assay: Inhibition of rDer f 1 cysteine protease activity by E-64
Format: biochemical, D. farinae
Details: E-64 1 μg/ml
Method: Native Der f 1 is believed to be a cysteine protease, based on homology to papain; see, for example, Chua et al, 1992, J Exp Med 167, 175-182. The Der f 1 protein secreted as a mature form by recombinant cell P. pastoris HCY215 (i.e., P. pastoris strain X33 transformed with plasmid pBC128 containing nucleic acid molecule nDerf1909b (coding strand of SEQ ID NO:28) which encodes the pro-form of Der f 1 (amino acid sequence SEQ ID NO:29)) was tested for cysteine protease activity in the following manner. Three concentrations of protein were tested for their abilities to cleave an artificial substrate in the presence or absence of a cysteine protease inhibitor. Specifically, three pairs of samples containing 0.56 μg, 1.1 μg, or 5.6 μg of P. pastoris-expressed Der f 1 protein, respectively, were incubated for 30 minutes at room temperature in 20 μl of 50 mM Tris-HCl, pH 8. One member of each pair also contained the irreversible cysteine protease inhibitor E-64 at a concentration of 1 μg/ml. After the pre-incubation, 100 μl of 50 μM quenched fluorogenic substrate z-Val-Leu-Arg-AMC (available from Enzyme Systems Products, Livermore, Calif.) was added to all six samples, and the samples were incubated for 2 hours at room temperature. Fluorescence was measured using a Perkin Elmer Luminescence Spectrometer (model #LS50B) at an excitation wavelength of 380nm and an emission wavelength of 460 nm.

CC(C)C[C@H](NC(=O)[C@H]1O[C@@H]1C(=O)O)C(=O)NCCCCN=C(N)N [E-64]
% Inhibition E-64 (0.56 micrograms rDer f 1): 65%
% Inhibition E-64 (1.1 micrograms rDer f 1): 55%
% Inhibition E-64 (5.6 micrograms rDer f 1): 76%
